From the supplement of paper PMC10307832

What was measured:
Assay in all cases: relative viability (nuclei count vs DMSO), 5 days (fraction); higher = more cells survive
BX 795 + Bortezomib = compound: O=C(NCCCNc1nc(Nc2cccc(NC(=O)N3CCCC3)c2)ncc1I)c1cccs1 [BX 795] + CC(C)C[C@H](NC(=O)[C@H](Cc1ccccc1)NC(=O)c1cnccn1)B(O)O [Bortezomib] (partner 0.002 µM)
How it was run: (§1)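 A single step with final 0.05% Triton X-100, 1% formaldehyde and 1 ug/ml Hoechst fixed the cells and stained nuclei 5 days after treatment. Lung cancer cell lines in 1536-well plates had been treated by pin tool the day after seeding with one drug alone or a fixed anchor-drug dose plus five library-drug doses (not always all listed) in √10 steps, and nuclei were counted on 4× images. Relative viability is the ratio of nuclei in treated wells to nuclei in vehicle wells, taken as the median of duplicate plates.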

BX 795 + Luminespib = compound: O=C(NCCCNc1nc(Nc2cccc(NC(=O)N3CCCC3)c2)ncc1I)c1cccs1 [BX 795] + CCNC(=O)c1noc(-c2cc(C(C)C)c(O)cc2O)c1-c1ccc(CN2CCOCC2)cc1 [Luminespib] (partner 0.01 µM)
How it was run: as §1

BX 795 + Alpelisib = compound: O=C(NCCCNc1nc(Nc2cccc(NC(=O)N3CCCC3)c2)ncc1I)c1cccs1 [BX 795] + Cc1nc(NC(=O)N2CCC[C@H]2C(N)=O)sc1-c1ccnc(C(C)(C)C(F)(F)F)c1 [Alpelisib] (partner 2 µM)
How it was run: as §1

BX 795 + Phenformin = compound: O=C(NCCCNc1nc(Nc2cccc(NC(=O)N3CCCC3)c2)ncc1I)c1cccs1 [BX 795] + N=C(N)NC(=N)NCCc1ccccc1 [Phenformin] (partner 250 µM)
How it was run: as §1

BX 795 + Vorinostat = compound: O=C(NCCCNc1nc(Nc2cccc(NC(=O)N3CCCC3)c2)ncc1I)c1cccs1 [BX 795] + O=C(CCCCCCC(=O)Nc1ccccc1)NO [Vorinostat] (partner 1 µM)
How it was run: as §1

| Cell Line | relative viability (BX 795 + Bortezomib; first compound 0.04 µM) | relative viability (BX 795 + Bortezomib; first compound 0.1265 µM) | relative viability (BX 795 + Bortezomib; first compound 0.4 µM) | relative viability (BX 795 + Bortezomib; first compound 1.265 µM) | relative viability (BX 795 + Luminespib; first compound 0.04 µM) | relative viability (BX 795 + Luminespib; first compound 0.1265 µM) | relative viability (BX 795 + Luminespib; first compound 0.4 µM) | relative viability (BX 795 + Luminespib; first compound 1.265 µM) | relative viability (BX 795 + Alpelisib; first compound 0.04 µM) | relative viability (BX 795 + Alpelisib; first compound 0.1265 µM) | relative viability (BX 795 + Alpelisib; first compound 0.4 µM) | relative viability (BX 795 + Alpelisib; first compound 1.265 µM) | relative viability (BX 795 + Phenformin; first compound 0.04 µM) | relative viability (BX 795 + Phenformin; first compound 0.1265 µM) | relative viability (BX 795 + Phenformin; first compound 0.4 µM) | relative viability (BX 795 + Phenformin; first compound 1.265 µM) | relative viability (BX 795 + Vorinostat; first compound 0.04 µM) | relative viability (BX 795 + Vorinostat; first compound 0.1265 µM) | relative viability (BX 795 + Vorinostat; first compound 0.4 µM) | relative viability (BX 795 + Vorinostat; first compound 1.265 µM) |
| --- | --- | --- | --- | --- | --- | --- | --- | --- | --- | --- | --- | --- | --- | --- | --- | --- | --- | --- | --- | --- |
| NCI-H520 | 0.355 | 0.36 | 0.356 | 0.308 | 0.211 | 0.2 | 0.225 | 0.277 | 0.859 | 0.91 | 0.786 | 0.444 | 0.699 | 0.658 | 0.4 | 0.233 | 0.69 | 0.721 | 0.768 | 0.381 |
| EMC-BAC-2 | 1.08 | 1.08 | 1.13 | 1.06 | 1.18 | 1.22 | 1.13 | 0.492 | 0.766 | 0.795 | 0.715 | 0.464 | 0.473 | 0.489 | 0.469 | 0.301 | 0.393 | 0.261 | 0.411 | 0.198 |
| NCI-H2009 | 0.97 | 0.924 | 0.996 | 0.804 | 1.02 | 0.932 | 1.11 | 0.83 | 1.14 | 1.06 | 1.34 | 0.836 | 0.492 | 0.447 | 0.447 | 0.305 | 0.731 | 0.67 | 0.818 | 0.591 |
| NCI-H2347 | 1.19 | 1.05 | 1.23 | 0.934 | 0.534 | 0.563 | 0.751 | 0.607 | 1.19 | 1 | 1.11 | 0.892 | 0.475 | 0.466 | 0.555 | 0.391 | 0.5 | 0.633 | 0.717 | 0.505 |
| LU99A | 1.23 | 1.02 | 0.8 | 0.773 | 0.288 | 0.278 | 0.226 | 0.294 | 0.541 | 0.445 | 0.482 | 0.222 | 0.875 | 0.741 | 0.915 | 0.53 | 0.472 | 0.485 | 0.37 | 0.363 |
| PC-3 [JPC-3] | 0.768 | 0.822 | 0.86 | 0.861 | 0.67 | 0.628 | 0.774 | 0.698 | 1.02 | 1.03 | 1.15 | 1.02 | 0.484 | 0.439 | 0.492 | 0.483 | 0.766 |  | 0.929 | 0.809 |
| NCI-H1437 | 0.543 | 0.493 | 0.533 | 0.415 | 1.13 | 1.14 | 1.17 | 1.12 | 1.02 | 1.06 | 1.01 | 0.863 | 0.279 | 0.336 | 0.328 | 0.257 | 0.765 | 0.945 | 1.02 | 0.621 |
| NCI-H1755 | 1.01 | 0.963 | 1.05 | 0.758 | 0.635 | 0.412 | 0.283 | 0.388 | 0.929 | 0.9 | 0.93 | 0.63 | 0.618 | 0.564 | 0.592 | 0.546 | 0.738 | 0.735 | 0.739 | 0.761 |
| NCI-H596 | 0.947 | 0.875 | 0.999 | 1.08 | 1.21 | 1 | 1.14 | 0.764 | 0.508 | 0.483 | 0.546 | 0.363 | 0.681 | 0.802 | 0.805 | 0.887 | 0.669 | 0.585 | 0.623 | 0.594 |
| EPLC-272H | 1.02 |  | 0.857 | 0.824 | 0.342 | 0.187 | 0.158 | 0.292 | 1 |  | 0.905 | 0.93 | 0.364 | 0.216 | 0.284 | 0.272 | 0.533 | 0.472 | 0.354 | 0.219 |
| NCI-H2405 | 0.965 | 1.03 | 0.91 | 0.941 | 0.718 | 0.714 | 0.573 | 0.585 | 0.785 | 0.735 | 0.372 | 0.626 | 0.438 | 0.355 | 0.33 | 0.262 | 1.01 | 0.809 | 0.951 | 0.821 |
